Values joined by “and” are separate entries in the source; they are usually repeats but may differ in a detail not shown here. Equal entries are not always repeated.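 Where inhibition never reached the appropriate level, the endpoint shown equals the highest concentration tested. Otherwise, values were interpolated linearly from a five-concentration, 48-hour dose response in 96-well plates. At the GI50, growth is halved. At the TGI there is no net growth.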 Some results are limits rather than exact numbers.

This note sets out measurements from PubChem BioAssay (NCI).

Experiment in all cases: NCI-60 cell line screen, 48 h
Test [1] deals with ACHN renal.
Test [2] has as its system NCI-H23 lung.
The test system of test [3] is A549 NSCLC.
The subject of test [4] is CAKI-1 renal.
The test system of test [5] is BT-549 breast.
Test [6] concerns UACC-257 melanoma.
Test [7] relates to HCT-116 colon.
Test [8] has as its system NCI-H226 lung.
For test [9], the system named is HT29 colon.
For test [10], the system named is SR leukemia.

As for `O=C(c1ccco1)c1nc2cc(F)ccc2[n+]([O-])c1C(F)(F)F`, the GI50 is 27.6 µM in test [1]; 19.1 µM in [2]; 34.6 µM in [3]; 15.8 µM in test [4]; 22.2 µM in test [5]; 22.5 µM in test [6]. The GI50 in test [7] was 34 µM; in test [8], 99.1 µM; in [9], 24 µM; in test [10], 17.4 µM. The TGI in test [1] is more than 100 µM; in test [2], 42.7 µM; in test [3], more than 100 µM; in test [4], 30.8 µM; in test [5], 51.6 µM; in [6], 67.3 µM. For the same compound, the TGI in test [7] is more than 100 µM; in [8], more than 100 µM; in test [9], 79 µM; in [10] it was 60.9 µM.
With `C/C(=N\N=C(\[Se])N1CCN(c2ccccn2)CC1)c1ccccn1`, the GI50 in [1] is 0.00847 µM; in [2], 0.023 µM; in test [3] it was 0.0476 µM; in [4] it was 0.0408 µM; in test [6], 0.0047 µM; in test [7] it was 0.00589 µM. Besides, the values for the GI50 in test [9] and in test [10] were 0.00203 µM and 4.17 µM, respectively. Further, the TGI was determined as 16.9 µM in test [1]; 21.8 µM in [2]; 21.7 µM in test [3]; 21.3 µM in test [4]; 25 µM in test [5]; 12.8 µM in [6]. The TGI turned out to be 6.27 µM in test [7], 14.3 µM in test [8], 14.2 µM in test [9] and 54.4 µM in [10].
With `O=C(Nc1ccc(Oc2ccc3nc(NC(=O)c4ccccc4)[nH]c3c2)cc1)Nc1cc(C(F)(F)F)ccc1F`, the GI50 in [1] was 1.84 µM; in [2] it was 0.93 µM; in test [3] it was 0.846 µM; in [4], 1.09 µM; in [5], 1.19 µM; in test [6], 1.39 µM. The GI50 is 1.09 µM in test [7], 0.603 µM in test [8], 1.38 µM in test [9] and 3.09 µM in [10]. In addition, the TGI in test [1] was more than 25 µM; in test [2] it was 13 µM; in test [3], 13.3 µM; in test [4] it was 7.8 µM; in test [5], 8.57 µM; in test [6] it was 11.3 µM. Further, the TGI in test [7] is more than 18.1 µM; in test [8] it was 3.97 µM; in [9] it was more than 25 µM; in test [10], 20.2 µM.
Consider `O=P(NC12CC3CC(CC(C3)C1)C2)(N1CC1)N1CC1`, for which the TGI in test [1] is more than 100 µM; in test [2] it was more than 63.8 µM; in test [3] it was more than 100 µM; in [4], more than 100 µM; in test [5], more than 100 µM; in test [6] it was more than 100 µM. Moreover, the TGI is more than 100 µM in [7], more than 94.8 µM in [8], more than 100 µM in test [9] and more than 91.4 µM in test [10].
With `CN(C)c1ncnc2c1nnn2C1OC(CO)C(O)C1O` (stereo not drawn), the GI50 is 0.141 µM in [1]; 0.399 µM in test [2]; 3.53 µM in test [3]; 0.066 µM in [4]; 1.09 µM in [5]; 0.515 µM in test [6]. Moreover, the GI50 in test [7] was 0.431 µM; in test [8] it was 4.49 µM; in test [9] it was 0.128 µM; in test [10] it was 0.393 µM. For the same compound, the TGI in [1] is more than 54 µM; in test [2], more than 63.2 µM; in test [3], more than 100 µM; in [4], 8.77 µM; in test [5], more than 100 µM; in test [6], more than 100 µM. Further, the TGI was more than 100 µM in [7], more than 100 µM in test [8], more than 24.7 µM in test [9] and 7.64 µM in [10].
In the case of `CN(N=O)C(=O)N[C@@H](C=O)[C@@H](O)[C@H](O)[C@H](O)CO`, the TGI was more than 750 µM in test [1]; more than 750 µM in test [2]; more than 750 µM in test [3]; 457 µM and > 750 µM in [4]; more than 750 µM in [5]; more than 750 µM in [6]. Moreover, the TGI is 653 µM and > 750 µM in [7]; more than 750 µM in test [8]; more than 750 µM in test [9]; more than 750 µM in [10]. Further, the GI50 in test [2], in [3], in test [4], in test [6], in test [7] and in [8] was more than 750 µM in each case. Further, the GI50 in test [9] is more than 750 µM.
Take `COc1ccc(C2=NN(C(=O)c3cc(OC)c(OC)c(OC)c3)C(c3ccc(Cl)cc3)C2)cc1OC` (stereo not drawn): the GI50 in test [1] is 2.32 µM; in test [2], 5.78 µM; in [3] it was 4.03 µM; in test [4], 1.14 µM; in [5], 2.95 µM; in test [6], 8.6 µM. Besides, the results for the GI50 in test [7], in test [9] and in test [10] were 2.04 µM, 1.4 µM and 0.448 µM, respectively. In addition, the TGI was 41.3 µM in test [1]; more than 90.1 µM in test [2]; more than 100 µM in test [3]; more than 54.1 µM in test [4]; 71.6 µM in test [5]; 77.8 µM in [6]. The TGI in [7] is 19.7 µM; in test [8], more than 57.7 µM; in [9], more than 100 µM; in test [10], more than 100 µM.
`CO/N=C(\C)c1cccc(Nc2cc(-c3ccccc3)nc3c(O)cccc23)c1`: the GI50 in [1] is 6.04 µM; in test [2] it was 3.92 µM; in test [3] it was 5.99 µM; in test [4] it was 2.78 µM; in test [5] it was 15.1 µM; in test [6] it was 4.07 µM. The GI50 in test [7] was 3.21 µM; in [8], 19.8 µM; in test [9] it was 21.8 µM; in [10], 3.83 µM. Besides, the TGI in [1] came to 28.1 µM; in test [2] it was 24 µM; in test [3], 21.8 µM; in test [4] it was 13.7 µM; in test [5], 55.1 µM; in test [6] it was 22.6 µM. The TGI is 15.2 µM in [7], more than 100 µM in test [8], 59.7 µM in test [9] and 29.8 µM in test [10].
Consider `CC(=O)c1cc2c(cc1Nc1c3ccccc3nc3occ(Cl)c13)OCO2`, for which the GI50 in test [1] was 0.46 µM; in test [2], 0.238 µM; in [3], 0.2 µM; in test [4], 0.085 µM; in [5], 0.157 µM; in test [6] it was more than 100 µM. Also, the GI50 in test [7] was 0.246 µM; in [8] it was 3.42 µM; in test [9] it was 0.439 µM; in [10], 0.12 µM. In addition, the TGI was more than 100 µM in test [1]; 2.23 µM in test [2]; more than 100 µM in test [4]; more than 100 µM in test [5]; more than 100 µM in test [6]; 1.07 µM in test [7]. Further, the TGI in [9] was more than 100 µM; in [10], 1.06 µM.
As for `COc1ccc(-c2nn(-c3cccc(NC(=O)c4ccc5c(c4)OCCO5)c3)cc2-c2ccncc2)cc1Cl`, the GI50 in test [1] is 3.82 µM; in test [2], 2.71 µM; in test [3], 2.98 µM; in test [4] it was 2.63 µM; in test [5], 1.79 µM; in [6], 3.17 µM. The GI50 was 2.03 µM in [7], 3.3 µM in [8], 1.88 µM in test [9] and 1.1 µM in test [10]. Further, the TGI in [1] was more than 100 µM; in [2], 21.3 µM; in test [3] it was 77.5 µM; in test [4], 15.8 µM; in [5], 7.4 µM; in [6] it was 20.5 µM. The TGI in test [7] was 14.5 µM; in test [8], more than 100 µM; in test [9], 12.1 µM; in [10] it was 5.66 µM.
Consider `COc1cc2nccc(Oc3ccc(NC(=O)C4(C(=O)Nc5ccc(F)cc5)CC4)cc3)c2cc1Oc1ccc(N)cn1`, for which the GI50 was 2.76 µM in [1]; 2.57 µM in test [2]; 2.38 µM in test [3]; 1.85 µM in test [4]; 3.8 µM in test [5]; 2.74 µM in test [6]. The GI50 is 3.33 µM in test [7], 1.5 µM in test [8], 1.92 µM in [9] and 3.25 µM in test [10]. In addition, the TGI in [1] was 10.2 µM; in test [2], more than 100 µM; in [3], 9.05 µM; in test [4], 5.48 µM; in test [5], more than 100 µM; in [6], 51.3 µM. The TGI in test [7] is more than 100 µM; in test [8], 9.07 µM; in test [9], 7.6 µM; in [10], more than 100 µM.
For the compound `O=c1c2ccccc2n2n1CC(O)C2` (stereo not drawn), the TGI in test [1] is more than 24.6 µM; in [2], more than 100 µM; in test [3], more than 100 µM; in test [4] it was more than 100 µM; in [5], more than 100 µM; in test [6] it was more than 100 µM. Further, the TGI in test [7], in [8], in [9] and in test [10] was more than 100 µM throughout. Moreover, in test [5], the GI50 was more than 100 µM.
For `CN(C)c1ccc(/C=C2\N=C(c3ccc([N+](=O)[O-])cc3)OC2=O)cc1`, the TGI in test [1], in test [2], in [3], in test [4], in [5] and in test [6] was more than 100 µM in each case. Moreover, the TGI is more than 100 µM in [7], more than 100 µM in test [8], more than 100 µM in [9] and 86.9 µM in [10].
